Where two headings read alike, the source gives them in different places.
How the values were obtained:
rat = rat tail flick, cited from earlier work
opiate receptor = conditions: rat brain membranes; cited from earlier work
[1] = test system: guinea pig ileum longitudinal muscle with myenteric plexus; assay: Guinea Pig Ileum Test (electrically stimulated longitudinal muscle, inhibition of twitch height); type: cell-based; conditions: ratio of IC50 of reference Met5-enkephalin (given as 100) to IC50 of test compound, same preparation, averaged over four preparations
Description: Adult male guinea pigs (Charles River, Hartley strain) weighing 300-500 g. are decapitated, and the terminal ileum is exposed by reflecting the overlying cecum, severed at the ileocecal juncture, and removed while cutting the mesenteric attachments to avoid excessive traction on the tissue. The ileum (about 30 cm. in length) is transferred to a beaker containing warm modified Krebs-Henseleit solution (118 mM sodium chloride, 4.75 mM potassium chloride, 2.45 mM calcium chloride, 1.19 mM potassium dihydrogen phosphate, 1.2 mM magnesium sulfate, 25 mM sodium bicarbonate, 11 mM glucose, 20 μM choline chloride and 0.125 μM pyrilamine maleate). The terminal (aboral) portion (about 10 cm. in length) is discarded, and segments (3-4 cm. in length) are cut from the remainder and gently slid onto a glass rod (5-6 mm. in diameter) and arranged so that the mesenteric attachment is in a straight line. A cotton swab moistened in the solution is then carefully used to separate the longitudinal muscle from the underlying circular muscle. The longitudinal muscle and adhering myenteric plexus is then gently removed from the remaining tissue with forceps.
Strips of thus prepared longitudinal muscle are mounted in a double-jacketed organ bath (5 ml.) under tension (1.0 g.), connected to isometric transducers (Grass FT 0.03), bathed in the modified Krebs-Henseleit solution described above, aerated with oxygen-carbon dioxide (95:5) and maintained at 37° C.
Stimulators (Grass S-44) are set to deliver repetitive monphasic square wave field stimulation (supramaximal voltage, 0.10 Hz., 0.25 msec. duration) through platinum ring electrodes at the top and bottom of the bath. Regular contractions of the muscle, which result from electrically-induced liberation of acetylcholine from postganglionic parasympathetic nerves, are recorded on a polygraph (Grass model 5). Following tissue equilibration (45-60 min.) and repeated washing (every 10 min.) an aqueous solution of a reference or test compound is added to the bath in a microliter volume (1.25-250 μl) and reductions in muscle twitch height are recorded. More compound can be added […] first washing the preparation.
From the results a half-maximal inhibitory concentration (IC50) value for the compound is computed by regression analysis of a linear plot of logarithm of concentration against percent of inhibition of twitch height (probits). The ratio of the […] of a reference compound to that of a test compound tested in the same preparation is the molar potency ratio. Usually four preparations are tested simultaneously by the same person (N=4), and the resulting four molar potency ratios are averaged.
The following results were obtained using the examples as test compounds and Met^5 -enkephalin as the reference compound: […]

guinea pig ileum = conditions: cited from earlier work
mouse vas deferens = conditions: cited from earlier work
Male Swiss-Webster mice = assay: Mouse Acetylcholine Writhing Test; type: in vivo; conditions: 20 min, subcutaneous, approximate, acetylcholine 3.2 mg./kg. i.p. 20 min after dosing
Description: Male Swiss-Webster mice each weighing 18-24 g. are treated subcutaneously (10 ml./kg. injection volume) or orally with the test compound in an aqueous vehicle. Twenty minutes thereafter each mouse is injected intraperitoneally with acetylcholine (3.2 mg./kg.) in aqueous sodium chloride (0.9%). This dose of acetylcholine causes one or more characteristic writhes in the two minute period following injection in control mice which receive the aqueous vehicle not containing the test compound. […] Test compounds are screened at doses of 100 and 30 mg./kg. subcutaneously and 300 and 100 mg./kg. orally using 15 mice at each dose level. ED50 values for active compounds are estimated by probit analysis of quantal scores at four or more dose levels using 15 mice at each dose level.

| Compound | Average Molar Potency Ratio [1] | further results |
| --- | --- | --- |
| C[C@@H](NC(=O)[C@@H](N)Cc1ccc(O)cc1)C(N)=O [H-Tyr-D-Ala-NH2] | – | times less potent than morphine (rat; intravenously): greater than 10 times; times less potent than morphine (rat; intraventricularly): 200 times; times less affinity than morphine (opiate receptor): 830 times |
| C[C@@H](CCc1ccccc1)NC(=O)[C@@H](C)NC(=O)[C@@H](N)Cc1ccc(O)cc1.Cl [Example 8, L-tyrosyl-N-(1-S-methyl-3-phenylpropyl)-D-alaninamide monohydrochloride] | 115 | – |
| C[C@@H](NC(=O)[C@@H](N)Cc1ccc(O)cc1)C(=O)NCCCCCc1ccccc1.Cl.O [Example 6, L-tyrosyl-N-(5-phenylpentyl)-D-alaninamide monohydrochloride monohydrate] | 30 | – |
| C[C@@H](NC(=O)[C@@H](N)Cc1ccc(O)cc1)C(=O)NCCNCCc1ccccc1 [HTyrD-AlaNH(CH2)2 NH(CH2)2 Phenyl] | – | potency relative to Met-enkephalin (guinea pig ileum): < 1%; potency relative to Met-enkephalin (mouse vas deferens): < 1% |
| CSCCCN(CCCc1ccccc1)C(=O)[C@@H](C)NC(=O)[C@@H](N)Cc1ccc(O)cc1.CSCCCN(CCCc1ccccc1)C(=O)[C@@H](C)NC(=O)[C@@H](N)Cc1ccc(O)cc1.Cl.Cl.O [Example 10, L-tyrosyl-N-[3-(methylthio)propyl]-N-(3-phenylpropyl)-D-alaninamide monhydrochloride hemihydrate] | 15 | – |
| C[C@@H](NC(=O)[C@@H](N)Cc1ccc(O)cc1)C(=O)N(C)CCCc1ccccc1.Cl.O [Example 2, L-tyrosyl-N-methyl-N-(3-phenylpropyl)-D-alaninamide monohydrochloride monohydrate] | 9 | ED50 (Male Swiss-Webster mice): > 10 mg/kg |
| C[C@@H](NC(=O)[C@@H](N)Cc1ccc(O)cc1)C(=O)NCCc1ccccc1.Cl.O [Example 1, L-tyrosyl-N-(2-phenylethyl)-D-alaninamide monohydrochloride hydrate (4:5)] | 14 | – |
| CCN(CCCc1ccccc1)C(=O)[C@@H](C)NC(=O)[C@@H](N)Cc1ccc(O)cc1.Cl [Example 4, L-tyrosyl-N-ethyl-N-(3-phenylpropyl)-D-alaninamide monohydrochloride] | 4 | ED50 (Male Swiss-Webster mice): > 30 mg/kg |
| Met^5 -enkephalin [reference compound] | 100 | – |
| L-tyrosyl-N-(3-phenylpropyl)-D-alaninamide monohydrochloride sesquihydrate [Example 3] | 117 | – |
| C[C@@H](NC(=O)[C@@H](N)Cc1ccc(O)cc1)C(=O)NCCCCc1ccccc1.Cl [Example 5, L-tyrosyl-N-(4-phenylbutyl)-D-alaninamide monohydrochloride] | 12 | – |
| C[C@H](CCc1ccccc1)NC(=O)[C@@H](C)NC(=O)[C@@H](N)Cc1ccc(O)cc1.Cl [Example 9, L-tyrosyl-N-(1-R-methyl-3-phenylpropyl)-D-alaninamide monohydrochloride] | 12 | – |
| C[C@@H](NC(=O)[C@@H](N)Cc1ccc(O)cc1)C(=O)N(CCCc1ccccc1)CCC[S+](C)[O-].Cl (stereo partly drawn) [Example 11, L-tyrosyl-N-[3-(methylsulfinyl)propyl]-N-(3-phenylpropyl)-D-alaninamide monohydrochloride] | 3 | – |
| C[C@@H](NC(=O)[C@@H](N)Cc1ccc(O)cc1)C(=O)N(CCCc1ccccc1)CCN(C)C.Cl.Cl [Example 7, L-tyrosyl-N-[2-(dimethylamino)ethyl]-N-(3-phenylpropyl)-D-alaninamide dihydrochloride] | 4 | – |
